Experimental findings from paper PMC6009888, “Design, synthesis, and pharmacological evaluation of 2-amino-5-nitrothiazole derived semicarbazones as dual inhibitors of monoamine oxidase and cholinesterase: effect of the size of aryl binding site” (Journal of Enzyme Inhibition and Medicinal Chemistry, 2017) are described below.

As usually defined, the logP is a log measure of how a compound divides between an organic and an aqueous phase. A higher logP goes with a more lipophilic compound. One may read the IC50 as the concentration at which inhibition is half-maximal.

“And” between values parts separate entries of the source, which are not always exact repeats. Equal values may be shown once. Some results are limits rather than exact numbers.

The subject of data set [1] is mice. Nature of the data set: Neurotoxicity screening (rotarod test). The class given is in vivo. Conditions: 30 mg/kg i.p. How it is done: The neurotoxicity screening was undertaken according to the method followed by the National Institute of Health, using their reported procedures[55]^,[56]. Male albino mice (CF-1 strain or Swiss, 18–25 g) were used as experimental animals. The animals were housed in metabolic cages, and allowed free access to food and water. The test compounds were suspended in 0.5% methylcellulose/water mixture or in polyethylene glycol (PEG 200).
Minimal motor impairment was measured in mice by the rotarod test. The mice were trained to stay on an accelerating rotarod that rotates at six revolutions per minute. The rod diameter was 3.2 cm. Trained animals were given i.p. injection of the selected inhibitors at a dose of 30 mg/kg. Neurotoxicity was indicated by the inability of the animal to maintain equilibrium on the rod for at least 1 min in each of the three trials.
(Falling from the rotarod earlier than controls is read as motor impairment.)

Data set [2] can be described thus: In vitro DPPH radical scavenging assay. Conditions: test sample 100 µg/ml, 100 µM methanolic DPPH, 30 min, 517 nm. How it is done: Antioxidant activity of the synthesised compounds (10 mg/ml) was evaluated using the radical scavenging capability against the stable free radical, 2,2′-diphenyl-1-picryl hydrazyl (DPPH·). The DPPH· scavenging capability was determined using UV based spectrophotometric assay. About 200 µl of the test sample solution (100 µg/ml) was added to 4 ml of 100 µM methanolic DPPH. […] Ascorbic acid (100 µg/ml) was used as reference. The percentage inhibition of DPPH activity was estimated using the formula: Percent (%) inhibition of DPPH activity = Acontrol-Asample/Acontrol×100 where Acontrol is the absorbance of DPPH· in methanol without an antioxidant and Asample is the absorbance of DPPH· in the presence of an antioxidant.
(In general: DPPH is a stable violet radical that fades when it is reduced.)

Data set [3] can be described thus: physchem. Conditions: octanol/water.
Data set [4] concerns the target T1, MAO-A (Rattus norvegicus, UniProt P21396).
T1 construct: employing crude rat brain mitochondrial suspension; from tissue; host or cells: brain mitochondria of adult Wistar rats
T1 sequence (P21396 1-526): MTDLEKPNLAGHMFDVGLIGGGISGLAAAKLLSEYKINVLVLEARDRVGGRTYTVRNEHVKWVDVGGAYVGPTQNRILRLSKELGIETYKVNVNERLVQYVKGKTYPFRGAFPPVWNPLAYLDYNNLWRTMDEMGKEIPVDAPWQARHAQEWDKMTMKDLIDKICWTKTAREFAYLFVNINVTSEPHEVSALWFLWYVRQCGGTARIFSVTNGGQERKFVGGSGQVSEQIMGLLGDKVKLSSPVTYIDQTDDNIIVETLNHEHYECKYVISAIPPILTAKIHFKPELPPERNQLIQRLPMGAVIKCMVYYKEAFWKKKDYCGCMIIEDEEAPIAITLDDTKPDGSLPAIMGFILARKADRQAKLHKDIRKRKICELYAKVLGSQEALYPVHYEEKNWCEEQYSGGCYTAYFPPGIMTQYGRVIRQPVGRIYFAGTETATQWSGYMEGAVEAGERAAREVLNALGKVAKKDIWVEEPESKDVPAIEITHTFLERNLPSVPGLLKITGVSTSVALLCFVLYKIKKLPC
Nature of the data set: In vitro MAO-A inhibition assay (rat brain mitochondria, serotonin substrate). The class given is biochemical. Conditions: rat brain mitochondria, serotonin substrate, mean ± SEM, triplicate; read-out: MAO-A In vitro IC50 (µM) ± SEM. How it is done:
(§1) Rat brain mitochondria were used as a source of MAO isoforms. All operations were carried out at 4 °C[50]. Male and female adult Wistar rats weighing 200–220 g were decapitated. All brains were rapidly removed and homogenised with a Potter–Elvehjem homogeniser in cold 0.32 M sucrose and 50 mM Tris-HCl, pH 8.2 (10:1, v/w). The homogenate was centrifuged twice at 1000 g for 5 min at 4 °C. The resulting supernatant was centrifuged at 20,000 g for 20 min. The mitochondrial pellet obtained was suspended in 100 mM sodium phosphate buffer, pH 7.4 (4:1, v/w), fractionated in plastic vials to 500 µl samples and stored at −80 °C. Before use, mitochondria were diluted with 100 mM sodium phosphate buffer to give a working solution of 0.80 mg of protein per millilitre.
(§2) The experiments were carried out under all the suitable laboratory conditions. […] An aliquot was made to contain mixture of 55 µl mitochondrial suspension (0.80 mg of protein/ml), 90 µl 50 mM Tris-HCl buffer, pH 8.2 and 30 µl solubilising solution (control or inhibitor solution at five different concentrations). The reaction was initiated by adding 25 µl of serotonin (4 mM, substrate for MAO-A) and 25 µl benzylamine (0.1 M, substrate for MAO-B) for the determination of MAO-A and MAO-B activity, respectively. The mixture was incubated at 37 °C for 30 min and the reaction was stopped by the addition of 50 µl of 1 N HCl. The absorbance associated with the production of 5-hydroxyindolacetic acid was measured at 280 nm for the estimation of MAO-A while for MAO-B estimation, the absorbance was measured at 250 nm due to the formation of benzaldehyde. All the assays were performed in triplicate. Control experiments were carried out without inhibitor and blanks were run without mitochondrial suspension.
(§3) Data are expressed as mean ± standard error mean (SEM) of experiments performed in triplicate.
(§4) 0, 15, 30 and 60 min at 37 °C in Tris-HCl buffer (50 mM, pH 8.2). […] The reactions were further incubated at 37 °C for a further 15 min and the residual enzyme activities were measured and the bar graphs were constructed. All measurements were carried out in triplicate and are expressed as mean ± SEM.

The target of data set [5] is T2, MAO-B (Rattus norvegicus, UniProt P19643).
T2 construct: employing crude rat brain mitochondrial suspension; from tissue; host or cells: brain mitochondria of adult Wistar rats
T2 sequence (P19643 1-520): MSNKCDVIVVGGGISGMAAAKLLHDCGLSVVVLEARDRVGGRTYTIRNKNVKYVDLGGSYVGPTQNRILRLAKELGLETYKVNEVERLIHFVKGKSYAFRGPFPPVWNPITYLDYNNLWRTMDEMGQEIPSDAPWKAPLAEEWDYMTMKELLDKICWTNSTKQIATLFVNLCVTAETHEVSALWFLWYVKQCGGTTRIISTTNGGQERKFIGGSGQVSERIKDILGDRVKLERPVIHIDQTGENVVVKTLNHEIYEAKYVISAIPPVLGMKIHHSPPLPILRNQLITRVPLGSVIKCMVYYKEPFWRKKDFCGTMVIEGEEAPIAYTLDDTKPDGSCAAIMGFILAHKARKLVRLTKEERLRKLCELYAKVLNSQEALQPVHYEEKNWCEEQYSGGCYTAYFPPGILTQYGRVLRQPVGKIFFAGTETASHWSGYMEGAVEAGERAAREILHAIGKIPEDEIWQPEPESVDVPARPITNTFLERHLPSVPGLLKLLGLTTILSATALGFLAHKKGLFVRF
In words: biochemical. To be noted: for MAO-B: fold less active than compound 13: isomeric dichloro derivatives; for SI (selectivity index for MAO-B): ratio of experimental IC50(MAO-A)/IC50(MAO-B). How it is done:
as §1, §2, §3, §4

For data set [6], the target named is T3, rat brain AChE (Rattus norvegicus, UniProt P37136).
T3 construct: the resulting clear supernatants obtained were used as enzyme sources; from tissue; host or cells: rat brain cortex homogenate, 10,000 g supernatant
In words: biochemical. Type of data set: biochemical. To be noted: for IC50: rat brain AChE, ACTI substrate, mean ± SEM, triplicate, read-out: AChE In vitro IC50 (µM) ± SEM. How it is done:
Rat brain was used as a source of AChE enzyme. Rats were separately decapitated, the brain cortices quickly removed, weighed and homogenised in cold 10 mM Tris-HCl buffer, pH 7.2, containing 160 mM sucrose. The homogenates were centrifuged at 10,000 g for 10 min at 4 °C, and the resulting clear supernatants obtained were used as enzyme sources that were divided into aliquots and stored at −20 °C.
About 30 µl of enzyme sample (AChE) was added to 60 µl of 20 mM sodium phosphate buffer (pH 7.4) and were incubated in the presence of 30 µl of 10 mM DTNB solution with different concentrations of the test compounds. The enzyme reaction was initiated by the addition of 30 µl of 0.8 mM ACTI. The mixtures were incubated for 15 min at 25 °C. […] Control experiments were carried out without inhibitor, and blanks were run without AChE enzyme. All the assays were performed in triplicate. IC50 values were determined using the GraphPad Prism 5.0 (San Diego, CA) and the results were expressed as mean ± SEM.
0, 15, 30 and 60 min at 25 °C in sodium phosphate buffer (20 mM, pH 7.4) and DTNB solution (10 mM). […] The reaction was further incubated at 25 °C for a further 15 min and the residual enzyme activities were measured and the bar graphs were constructed. All measurements were carried out in triplicate and are expressed as mean ± SEM.

T3 sequence (P37136 32-614): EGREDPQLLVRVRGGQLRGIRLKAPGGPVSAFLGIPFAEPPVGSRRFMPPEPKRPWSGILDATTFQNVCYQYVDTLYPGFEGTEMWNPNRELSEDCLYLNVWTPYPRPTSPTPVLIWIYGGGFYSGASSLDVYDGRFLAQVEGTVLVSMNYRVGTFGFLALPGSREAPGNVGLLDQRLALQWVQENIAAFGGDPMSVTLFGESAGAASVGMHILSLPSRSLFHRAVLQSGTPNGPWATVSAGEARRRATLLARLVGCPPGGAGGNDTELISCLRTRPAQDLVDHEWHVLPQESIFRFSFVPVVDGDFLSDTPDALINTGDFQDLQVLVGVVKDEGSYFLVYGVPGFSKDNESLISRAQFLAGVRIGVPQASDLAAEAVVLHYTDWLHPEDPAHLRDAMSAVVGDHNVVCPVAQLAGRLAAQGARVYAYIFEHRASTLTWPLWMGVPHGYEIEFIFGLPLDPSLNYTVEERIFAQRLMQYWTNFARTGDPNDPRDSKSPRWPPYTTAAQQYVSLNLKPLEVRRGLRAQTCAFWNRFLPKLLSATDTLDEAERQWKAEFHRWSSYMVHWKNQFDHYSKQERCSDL

As for `O=C(NN=Cc1cccc(Cl)c1Cl)Nc1ncc([N+](=O)[O-])s1` [Compound 12, 1-(2,3-Dichlorobenzylidene)-4-(5-nitrothiazol-2-yl)semicarbazide], the “Neurotoxicity (animals that exhibit toxicity / animals tested)” value in data set [1] (0.5 h), in data set [1] (1 h), in data set [1] (2 h) and in data set [1] (4 h) was 0/4 in each case. In addition, in data set [2], the “% inhibition of DPPH activity” value came out at 42.56%. This compound came in with a lipophilicity (logP) in data set [3] of 2.6. For the same compound, the IC50 in data set [4] turned out to be 3369 ± 6.43 µM; in data set [5] it was 8.51 ± 0.132 µM; in data set [6] it was 101 ± 1.58 µM. The “MAO-B: fold less active than compound 13” value in data set [5] is roughly 2.4 fold. In addition, in data set [5], the “SI (selectivity index for MAO-B)” value came out at 395.79. Besides, the “AChE: fold less active than compound 14” value in data set [6] (isomeric dichloro derivatives) is recorded as roughly 9.4 fold.

With `O=C(NN=Cc1ccc(Cl)cc1Cl)Nc1ncc([N+](=O)[O-])s1` [Compound 13, 1-(2,4-Dichlorobenzylidene)-4-(5-nitrothiazol-2-yl)semicarbazide], the “Neurotoxicity (animals that exhibit toxicity / animals tested)” value in data set [1] (0.5 h), in data set [1] (1 h), in data set [1] (2 h) and in data set [1] (4 h) was 0/4 throughout. Besides, in data set [2], the “% inhibition of DPPH activity” value was 39.39%. Also, the logP in data set [3] is 2.5. In addition, the 50% inhibitory concentration (IC50) in data set [4] is 10470 ± 13.9 µM; in data set [5], 3.49 ± 0.098 µM; in data set [6], 141 ± 3.11 µM. In data set [5], the “SI (selectivity index for MAO-B)” value is 3001.15.

For the compound `O=C(NN=Cc1c(Cl)cccc1Cl)Nc1ncc([N+](=O)[O-])s1` [Compound 14, 1-(2,6-Dichlorobenzylidene)-4-(5-nitrothiazol-2-yl)semicarbazide], in data set [2], the “% inhibition of DPPH activity” value is reported as 55.29%. The logP in data set [3] is 3.1. For the same compound, the IC50 in data set [4] was found to be 13910 ± 19.7 µM. Moreover, in data set [5], it took 16.9 ± 0.37 µM to reach half-maximal inhibition (IC50), the “MAO-B: fold less active than compound 13” value was roughly 4.85 fold and the “SI (selectivity index for MAO-B)” value came to 821.43. In addition, the IC50 in data set [6] stood at 10.7 ± 0.56 µM.

Consider `O=C(NN=C(c1ccccc1)c1ccc(O)cc1)Nc1ncc([N+](=O)[O-])s1` [Compound 18, 1-((4-Hydroxyphenyl)(phenyl)methylene)-4-(5-nitrothiazol-2-yl)semicarbazide], for which the “Neurotoxicity (animals that exhibit toxicity / animals tested)” value in data set [1] (0.5 h), in data set [1] (1 h), in data set [1] (2 h) and in data set [1] (4 h) was 0/4 throughout. In addition, in data set [2], the “% inhibition of DPPH activity” value is on record as 10.77%. The compound further yielded a logP in data set [3] of 2.9. Moreover, the IC50 is > 100 µM and 34300 µM in data set [4]; 158 ± 3.71 µM in data set [5]; 2.66 ± 0.084 µM in data set [6]. For the same compound, the “MAO-B: fold reduction in the activity (hydroxyl vs dichloro diaryl analogue 19)” value in data set [5] (diaryl analogues) was roughly 107 fold. In addition, the “MAO-B: fold less active relative to compound 7” value in data set [5] (ratio of IC50 values) is on record as roughly 10.7 fold. The “SI (selectivity index for MAO-B)” value in data set [5] was determined as 217.26. For the same compound, in data set [6] (diaryl analogues), the “AChE: fold less active relative to compound 19” value is listed as roughly 1.83 fold. For the same compound, the “AChE: fold more active relative to compound 7” value in data set [6] (ratio of IC50 values) is roughly 4.97 fold.

As to `O=C(NN=C1C(=O)Nc2ccccc21)Nc1ncc([N+](=O)[O-])s1` [Compound 20, 4-(5-Nitrothiazol-2-yl)-1-(2-oxoindolin-3-ylidene)semicarbazide], the “Neurotoxicity (animals that exhibit toxicity / animals tested)” value in data set [1] (0.5 h), in data set [1] (1 h), in data set [1] (2 h) and in data set [1] (4 h) was 0/4 throughout. The “% inhibition of DPPH activity” value in data set [2] came to 47.16%. Moreover, in data set [3], the logP stood at 1.1. Further, the results for the IC50 in data set [4], in data set [5] and in data set [6] were 2250 ± 12.8 µM, 4.51 ± 0.086 µM and 54.8 ± 0.92 µM, respectively. Moreover, in data set [5], the “SI (selectivity index for MAO-B)” value came out at 499.22.
